Legend:
BCAT2 = biological target: T1, BCAT2 (Homo sapiens, UniProt O15382); assay: BCAT2 enzyme inhibition (human); format: biochemical
T1 sequence (O15382 28-392): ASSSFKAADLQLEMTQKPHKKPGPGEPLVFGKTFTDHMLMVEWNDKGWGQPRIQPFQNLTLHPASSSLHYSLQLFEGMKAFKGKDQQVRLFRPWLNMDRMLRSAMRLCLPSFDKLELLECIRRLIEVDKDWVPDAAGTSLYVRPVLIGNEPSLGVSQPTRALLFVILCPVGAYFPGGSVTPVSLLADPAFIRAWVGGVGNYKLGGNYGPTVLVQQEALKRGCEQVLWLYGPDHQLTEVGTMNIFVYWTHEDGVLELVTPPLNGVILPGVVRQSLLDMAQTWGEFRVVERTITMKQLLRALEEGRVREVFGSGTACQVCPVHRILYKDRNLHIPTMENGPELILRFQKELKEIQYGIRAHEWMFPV
Method: In further embodiments, the functional modulation of BCAT2 is assayed using a cell-free assay. In various embodiments, the cell-free assay is an enzyme-coupled fluorescent assay. For example, the disclosure contemplates use of an assay that monitors the production of L-glutamate from branch-chain amino acids and α-ketoglutarate through the coupling of hBCATm activity to two additional enzymes, L-Glutamate Oxidase (L-GOx) and Horseradish Peroxidase (HRP). Specifically, L-GOx catabolizes L-glutamate to generate α-ketoglutarate and […], the latter being utilized by HRP and leading to the formation of fluorescent resorufin from the redox-sensitive dye Amplex Red. In some embodiments, the test compound is classified as a candidate compound if a decrease in L-glutamate is measured. In further embodiments, the test compound is classified as a candidate compound if a decrease in α-ketoglutarate is measured.

GM00371 cells = assay: Viability assay (Cell titer glo) in the 3-HIB assay; format: cell-based, human; settings: Homo sapiens, 24 h, read-out: 3HIB INHIBITION IC50 (μM) MEAN GM00371 cells Viablility Assay
Method: Cell Plating: Cells (Coriell Institute GM00371 cells) were plated (96-well clear bottom sterile plate; Greiner 655098) at 10,000 cells/0.1 mL in Eagle's minimum essential medium (EMEM)/15% FBS (Gibco 16000-044) with a Combi dispenser in a cell culture hood and incubated at 37° C. and 5% CO2 overnight.
Compound Dilution: Compound were prepared as 33.3× intermediate dilution in DMSO in 96 well round polystyrene plates. For 30 μM final maximum start with 30 μL of 10 mM in DMSO. 10-12 1:3 serial dilutions were prepared from left to right (20 μL+40 μL DMSO). A 10× secondary dilution was prepare in EMEM by taking 7.5 μL 33.3× and transfer to replicate 96 well round polystyrene plates and then adding 242.5 μL EMEM A 1× final dilution in EMEM was prepared by taking 50 μL 10× dilution and transferring to replicate 96 well polypropylene assay block (Costar 3956) and adding 450 μL EMEM A control was prepared for maximal compound inhibition by taking 20 μL 10 mM Reference Compound A and adding 40 μL DMSO for a concentration of 3.3 mM To 7.5 μL of the 3.3 mM Reference Compound A solution and added 242.5 μL EMEM to make a 100 μM solution. The subsequent Reference Compound A solution was diluted with EMEM to achieve a final concentration of 10 μM. The structure of Reference Compound A is:
A control was prepared for maximal compound toxicity by taking 7.5 μL Reference Compound B and 242.5 μL EMEM to make […]. 50 μL of that 100 μM Reference Compound B solution was combined with 450 μL EMEM to achieve a concentration of 30 μM. The structure of Reference Compound B is
Compound Treatment: Media was aspirated from the cells and 100 μL of D-PBS (ThermoFisher 14190144) was added and then removed. 100 μL of diluted compound was added to the cells in the place and the cells were incubated at 37° C. and 5% CO2 for 24 hours.
Viability Assay: To the cells remaining in the plate 25 μL D-PBS and 25 μL Cell titer glo reagent (Promega G7572). The plate was placed on a shaker for 2 minutes, incubated at room temperature in the dark and then read on a Clariostar microplate reader.

IC50 (BCAT2)	SMILES	IC50 (GM00371 cells)
> 1000 nM	C=CC(=O)N[C@H]1CCC[C@@H](n2c(-c3ccccn3)nc3cc(C(=O)NC)ccc32)C1 [Compound 106]	≥ 1 µM
> 1000 nM	C=CC(=O)NCc1ccc(C(=O)N[C@H]2CCC[C@@H](n3c(-c4ccccn4)nc4cc(C(=O)NC)ccc43)C2)s1 [Compound 108]	≥ 1 µM
> 1000 nM	C=CC(=O)Nc1ccc(C(=O)N[C@H]2CCC[C@@H](n3c(-c4ccccn4)nc4cc(C(=O)NC)ccc43)C2)s1 [Compound 110]	≥ 1 µM
> 1000 nM	CNC(=O)c1ccc2c(c1)nc(-c1ccccn1)n2[C@@H]1CCC[C@H](NC(=O)c2ccc(-c3ccccc3)s2)C1 [Compound 111]	≥ 1 µM
100 to 500 nM	CNC(=O)c1ccc2c(c1)nc(-c1ccccn1)n2[C@@H]1CCC[C@H](NC(=O)c2ccc(Br)cc2)C1 [Compound 114]	–
> 1000 nM	CNC(=O)c1ccc2c(c1)nc(-c1ccccn1)n2[C@@H]1CCC[C@H](NC(=O)c2ccccc2)C1 [Compound 115]	≥ 1 µM
> 1000 nM	COC(=O)c1ccc2c(c1)nc(-c1ccccn1)n2[C@@H]1CCC[C@H](NC(=O)c2cccs2)C1 [Compound 117]	≥ 1 µM
> 1000 nM	O=C(N[C@H]1CCC[C@@H](n2c(-c3ccccn3)nc3cc(CO)ccc32)C1)c1cccs1 [Compound 118]	≥ 1 µM
100 to 500 nM	O=C(N[C@H]1CCC[C@@H](n2c(-c3ccccn3)nc3cc(CO)ccc32)C1)c1ccc(Br)s1 [Compound 119]	–
> 1000 nM	CNC(=O)c1ccc2c(c1)nc(-c1ccccn1)n2[C@@H]1CCC[C@H](NC(=O)c2coc(Br)n2)C1 [Compound 120]	≥ 1 µM
> 1000 nM	CNC(=O)c1ccc2c(c1)nc(-c1ccccn1)n2[C@@H]1CCC[C@H](NC(=O)c2ccc(C(C)=O)s2)C1 [Compound 121]	≥ 1 µM
> 1000 nM	CNC(=O)c1ccc2c(c1)nc(-c1ccccn1)n2[C@@H]1CCC[C@H](NC(=O)c2ccc(C(=O)OC)s2)C1 [Compound 122]	≥ 1 µM
> 1000 nM	CNC(=O)c1ccc2c(c1)nc(-c1ccccn1)n2[C@@H]1CCC[C@H](NC(=O)c2ccc(Br)o2)C1 [Compound 125]	–
500 to 1000 nM	CNC(=O)c1ccc2c(c1)nc(-c1ccccc1NC(C)=O)n2[C@H]1CCC[C@@H](NC(=O)c2ccc(C#N)s2)C1 [Compound 130]	–
100 to 500 nM	CNC(=O)c1ccc2c(c1)nc(-c1ccccn1)n2[C@H]1CC[C@@H](NC(=O)c2ccc(Br)s2)C1 [Compound 132]	≥ 1 µM
< 100 nM	CNC(=O)c1ccc2c(c1)nc(-c1ccccc1C(N)=O)n2[C@H]1CCC[C@@H](NC(=O)c2ccc(C#N)s2)C1 [Compound 142]	≥ 1 µM
500 to 1000 nM	CNC(=O)c1ccc2c(c1)nc(-c1ccccn1)n2C1CCCC(NC(=O)c2ccc(C3CC3)s2)C1 (stereo not drawn) [Compound 144]	≥ 1 µM
> 1000 nM	CNC(=O)c1ccc2c(c1)nc(-c1ccccn1)n2[C@H]1CCC[C@@H](NC(=O)c2ccc(C(C)C)s2)C1 [Compound 146]	≥ 1 µM
< 100 nM	CNC(=O)c1ccc2c(c1)nc(-c1cccc(C)n1)n2[C@H]1CCC[C@@H](NC(=O)c2ccc(Br)s2)C1 [Compound 148]	–
> 1000 nM	CNC(=O)c1ccc2c(c1)nc(-c1ncccc1OC)n2[C@H]1CCC[C@@H](NC(=O)c2ccc(Br)s2)C1 [Compound 150]	–
500 to 1000 nM	CNC(=O)c1ccc2c(c1)nc(-c1ccc(C)cn1)n2[C@H]1CCC[C@@H](NC(=O)c2ccc(Br)s2)C1 [Compound 153]	–
> 1000 nM	CNC(=O)c1ccc2c(c1)nc(-c1ccc(OC)c(OC)c1)n2[C@H]1CCC[C@@H](NC(=O)c2ccc(Br)s2)C1 [Compound 158]	–
100 to 500 nM	CNC(=O)c1ccc2c(c1)nc(-c1ccccc1N1CCOCC1)n2[C@H]1CCC[C@@H](NC(=O)c2ccc(Br)s2)C1 [Compound 159]	–

IC50 (BCAT2)	SMILES	IC50 (GM00371 cells)
> 1000 nM	CNC(=O)c1ccc2c(c1)nc(-c1ccc3c(c1)OC(F)(F)O3)n2[C@H]1CCC[C@@H](NC(=O)c2ccc(Br)s2)C1 [Compound 160]	–
> 1000 nM	CNC(=O)c1ccc2c(c1)nc(-c1ccc(C#N)cc1)n2[C@H]1CCC[C@@H](NC(=O)c2ccc(Br)s2)C1 [Compound 162]	–
100 to 500 nM	CNC(=O)c1ccc2c(c1)nc(-c1ccc(Cl)cc1)n2[C@H]1CCC[C@@H](NC(=O)c2ccc(Br)s2)C1 [Compound 164]	–
> 1000 nM	CNC(=O)c1ccc2c(c1)nc(-c1cccc(C#N)c1)n2[C@H]1CCC[C@@H](NC(=O)c2ccc(Br)s2)C1 [Compound 165]	–
> 1000 nM	C#Cc1cccc(-c2nc3cc(C(=O)NC)ccc3n2[C@H]2CCC[C@@H](NC(=O)c3ccc(Br)s3)C2)c1 [Compound 167]	–
500 to 1000 nM	CNC(=O)c1ccc2c(c1)nc(-c1csc3c1CCCC3)n2[C@H]1CCC[C@@H](NC(=O)c2ccc(Br)s2)C1 [Compound 168]	–
500 to 1000 nM	CNC(=O)c1ccc2c(c1)nc(-c1ccc(C)cc1)n2[C@H]1CCC[C@@H](NC(=O)c2ccc(Br)s2)C1 [Compound 170]	–
100 to 500 nM	CNC(=O)c1ccc2c(c1)nc(-c1ccc(C)s1)n2[C@H]1CCC[C@@H](NC(=O)c2ccc(Br)s2)C1 [Compound 171]	–
100 to 500 nM	CNC(=O)c1ccc2c(c1)nc(-c1cc(Cl)ccc1O)n2[C@H]1CCC[C@@H](NC(=O)c2ccc(C#N)s2)C1 [Compound 179]	–
> 1000 nM	CNC(=O)c1ccc2c(c1)nc(-c1cc(Cl)cc(C)c1O)n2[C@H]1CCC[C@@H](NC(=O)c2ccc(Br)s2)C1 [Compound 182]	–
100 to 500 nM	CNC(=O)c1ccc2c(c1)nc(-c1ccc(O)cn1)n2[C@H]1CCC[C@@H](NC(=O)c2ccc(Br)s2)C1 [Compound 186]	–
> 1000 nM	CNC(=O)c1ccc2c(c1)nc(-c1ccc(C#N)c(Cl)n1)n2[C@H]1CCC[C@@H](NC(=O)c2ccc(C#N)s2)C1 [Compound 187]	–
100 to 500 nM	CNC(=O)c1ccc2c(c1)nc(-c1cc(Cl)ccc1O)n2[C@H]1CCC[C@@H](NC(=O)c2ccc(Cl)s2)C1 [Compound 190]	–
> 1000 nM	CNC(=O)c1ccc2c(c1)nc(-c1ccc(O)cn1)n2[C@H]1CCC[C@@H](NC(=O)c2ccc(Cl)s2)C1 [Compound 191]	–
< 100 nM	CNC(=O)c1cc2nc(-c3cccc(F)c3O)n([C@H]3CCC[C@@H](NC(=O)c4ccc(Br)s4)C3)c2cc1F [Compound 209]	0.1 to 0.5 µM
< 100 nM	CNC(=O)c1cc2nc(-c3sccc3C)n([C@H]3CCC[C@@H](NC(=O)c4ccc(Br)s4)C3)c2cc1F [Compound 210]	≥ 1 µM
< 100 nM	CNC(=O)c1cc2nc(-c3ccccn3)n([C@H]3CCC[C@@H](NC(=O)c4ccc(Br)s4)C3)c2cc1OC [Compound 211]	0.1 to 0.5 µM
< 100 nM	CNC(=O)c1cc2nc(-c3ccccc3F)n([C@H]3CCC[C@@H](NC(=O)c4ccc(Cl)s4)C3)c2cc1OC [Compound 212]	< 0.1 µM
> 1000 nM	CNC(=O)c1ccc2c([C@H]3CCC[C@H](NC(=O)c4ccc(-c5ccccc5)s4)C3)c(-c3ccccc3)[nH]c2c1 [Compound 282]	–
> 1000 nM	COC(=O)c1ccc2c(n1)nc(-c1ccccn1)n2[C@H]1CCC[C@@H](NC(=O)c2cccs2)C1 [Compound 300]	–
100 to 500 nM	COC(=O)c1ccc2c(n1)nc(-c1ccccn1)n2[C@@H]1CCC[C@H](NC(=O)c2ccc(Br)s2)C1 [Compound 301]	–
> 1000 nM	CNC(=O)c1ccc2c(n1)nc(-c1ccccn1)n2[C@@H]1CCC[C@H](NC(=O)c2ccc(Br)s2)C1 [Compound 305]	–

From US20220274967A1, “BCAT MODULATION” (Icagen, LLC, priority 2019, published 2022)
